Data reported in patent US6242442A (Alcon Laboratories, Inc., priority 2000, dated 2001).
Like-named read-outs stand apart in the source and are kept apart here. Each block holds one molecule with its values, some of them ahead of it.

Tests used:
[1] = tested on: scleral vessels; vessels in the back of the eye; conditions: topical ocular administration; cited from earlier work
IOP = conditions: rabbits, monkeys and man; cited from earlier work
[2] = topical, some patients; cited from earlier work
α2 = conditions: cited from earlier work
[3] = octanol/water, pH 7.4; in words; cited from earlier work
[4] = in words; cited from earlier work
[5] = Distribution coefficient (octanol/water determined at pH 7.4); type: physicochemical
[6] = tested on: ocular and cerebral blood flow; conditions: oral and i.v. administration, relatively high dosages; cited from earlier work
retina [7] = assay: Tissue distribution after single topical ocular dose of 14C-brinzolamide, NZW rabbits; type: in vivo, New Zealand Albino (NZW) rabbits
optic nerve head = assay: Optic nerve head blood flow by LDF in anesthetized rabbits, intravenous; type: in vivo, New Zealand albino rabbits; conditions: intravenous 0.5, 2.5, and 5 mg/kg
From the text: (§1) In this experiment it was also possible to compare blood flows of the normal eye to the contralateral eye that was mildly hypofused due to unilateral carotid occlusion.

retina [8] = assay: Tissue distribution after single topical ocular dose of 14C-brinzolamide, Dutch belted rabbits; type: in vivo
[9] = tested on: intraocular pressure (IOP); assay: Intraocular pressure, one-week multidose topical crossover study in rabbits; type: in vivo, Dutch-Belted rabbits; conditions: 2% suspension topical, one drop twice daily, 90 minutes after last dose, p<0.05 versus vehicle, p<0.001 versus baseline
Procedure: (§2) Treatment measurements were made 90 minutes after the last dose on day eight. Optic nerve head blood flow and measured systemic variables were not changed by vehicle treatment. […] It is established that the vasculature of the ONH responds to increases in arterial O2 or CO2 tension by a reduction or an enhancement of ONH blood flow respectively.

intraocular pressure = conditions: ocular hypertension and glaucoma; cited from earlier work
optic nerve head (ONH) [10] = assay: Optic nerve head blood flow by laser Doppler flowmetry in cats; type: in vivo, cat
[11] = Acid-base balance and arterial gases, one-week multidose topical crossover study in rabbits; type: in vivo, Dutch-Belted rabbits; conditions: 2% suspension topical, one drop twice daily
Procedure: as §2

optic nerve head (ONH) [12] = assay: Optic nerve head blood flow by LDF, one-week multidose topical crossover study in rabbits; type: in vivo, Dutch-Belted rabbits; conditions: 2% suspension topical, one drop twice daily, 90 minutes after last dose, mean±SEM, p<0.05
Procedure: as §2

ocular tissues = assay: Ocular blood flow by colored microsphere technique in anesthetized rabbits, intravenous; type: in vivo, New Zealand albino rabbits; conditions: for increase in total ocular blood flow, hypofused eyes: unilateral carotid occlusion
From the text: as §1

[13] = tested on: blood flow to the iris, ciliary processes, optic nerve, or retina; conditions: topical, rabbits; Sugrue et al. 1996; cited from earlier work
ocular blood flow [14] = conditions: cited from earlier work
ocular blood flow [15] = conditions: cited from earlier work; remark: listed apart in the source
[16] = retina, single topical ocular dose of 1% 14C-brinzolamide
[17] = read-out: distribution coefficient (converted)

Structure (SMILES): Brc1c(NC2=NCCN2)ccc2nccnc12 [brimonidine, (5-bromo-6-2-imidzolidisnylideneamino) quinozoline L-tartrate]
vasoconstriction in scleral vessels [1]: causes vasoconstriction in scieral vessels
vasoconstriction in vessels in the back of the eye [1]: does not appear to be a vasoconstrictor in vessels in the back of the eye
lowering of IOP (IOP): effectively lower IOP in rabbits, monkeys and man
side effects [2]: sedation and ocular hyperemia in an allergic like reaction in some patients
α2 agonist activity and selectivity (α2): potent and relatively selective α2 agonist

logD [5]: -0.194
Structure (SMILES): CC(=O)/N=c1/sc(S(N)(=O)=O)nn1C [methazolamide]
distribution coefficient [3]: low distribution coefficients
half-life in whole blood [4]: relatively short half-lives in whole blood
ocular and cerebral blood flow [6]: increase both ocular and cerebral blood flow

Structure (SMILES): CC(=O)Nc1nnc(S(N)(=O)=O)s1 [acetazolamide]
half-life in whole blood [4]: relatively short half-lives in whole blood
ocular and cerebral blood flow [6]: increase both ocular and cerebral blood flow

Structure (SMILES): CCN[C@H]1CN(CCCOC)S(=O)(=O)c2sc(S(N)(=O)=O)cc21 [brinzolamide, R-(+)-4ethylamino-3,4-dihydro-2-(3-methoxy)propyl-2H thieno[3,2,e]1,2thiazene-6sulfonamide-1,1dioxide]
Cmax (retina [7]; [16]): 0.330 ?g equivalents/g
Tmax in the retina (retina [7]; single topical ocular dose of 1% 14C-brinzolamide): 20 days
redistribution into the retina (retina [7]; topical ocular): slowly redistribute into the retina
optic nerve head blood flow (optic nerve head): increased above baseline
Cmax (retina [8]; [16]): 0.338 ?g equivalents/g
redistribution into the retina (retina [8]; topical ocular): slowly redistribute into the retina
decrease of IOP [9]: 16.8±2.2%
lowering of elevated intraocular pressure (intraocular pressure): effective in lowering the elevated intraocular pressure
increase in ONH blood flow over control group (optic nerve head (ONH) [10]; 1% topical, one drop twice a day, one week, spontaneously breathing cats, average of two measurements): 21.8%
increase in ONH blood flow (optic nerve head (ONH) [10]; 60 minutes following single topical dose, anesthetized ventilated cats): 16.5%±8%
increase in ONH blood flow (optic nerve head (ONH) [10]; intravenous, p≤0.05): 46±17%
disturbance of acid-base balance [11]: Minimal disturbance of acid-base balance
increase in ONH blood flow (optic nerve head (ONH) [12]): 11.2±1.6%
logD [5, 17]: 0.817
regional blood flows to the hypofused eye (ocular tissues; highest intravenous dose): returned regional blood flows to the hypofused eye to baseline levels found in the normal eye
tissues with greatest percentage blood flow increase, hypofused eye (ocular tissues; intravenous): greatest to iridial, ciliary, and choroidal tissues, respectively
increase in total ocular blood flow, normal eyes (ocular tissues; intravenous 0.5 mg/kg): 29%
increase in total ocular blood flow, hypofused eyes (ocular tissues; intravenous 0.5 mg/kg): 21%
increase in total ocular blood flow, normal eyes (ocular tissues; intravenous 2.5 mg/kg): 68%
increase in total ocular blood flow, hypofused eyes (ocular tissues; intravenous 2.5 mg/kg): 64%
increase in total ocular blood flow, normal eyes (ocular tissues; intravenous 5 mg/kg): 90%
increase in total ocular blood flow, hypofused eyes (ocular tissues; intravenous 5 mg/kg): 90%
total ocular blood flow (ocular tissues; intravenous 0.5, 2.5, and 5 mg/kg): significant dose-related increase

Structure (SMILES): CCN[C@H]1C[C@H](C)S(=O)(=O)c2sc(S(N)(=O)=O)cc21 [dorzolamide]
blood flow to the iris, ciliary processes, optic nerve, or retina [13]: does not decrease blood flow
blood velocity in the retina and superficial optic nerve head (ocular blood flow [14]; Harris et al. 1996): accelerated blood velocity in the retina and superficial optic nerve head
choroidal pressure flow relationships (ocular blood flow [14]; Shipman et al. 1997): did not alter the choroidal pressure flow relationships
peripapillary blood flow (ocular blood flow [14]; topical, Koller et al. 1997): did not change peripapillary blood flow
ocular blood flow (ocular blood flow [14]; topical, Sponsel 1996, 1997): positive effect on ocular blood flow
artereovenous passage time (ocular blood flow [15]; healthy subjects, WO 96/37203): accelerated artereovenous passage time
optic nerve head velocity (ocular blood flow [15]; healthy subjects, WO 96/37203): increase in optic nerve head velocity
retinal vein blood flow (ocular blood flow [15]; normal volunteers, Gruenwald et al. 1997): no effect on retinal vein blood flow
optic nerve head blood flow (ocular blood flow [15]; topical, healthy subjects, Pillunat et al. 1997): did not alter optic nerve head blood flow
logD [5, 17]: 0.236
